Results: ChEMBL document CHEMBL5506005, “Biochemical and structural characterization of chlorhexidine as an ATP-assisted inhibitor against type 1 methionyl-tRNA synthetase from Gram-positive bacteria” (Eur J Med Chem, 2024)

What was measured:
Methionine--tRNA ligase [1] = target: T1, Methionine--tRNA ligase (Staphylococcus aureus (strain Mu50 / ATCC 700699), UniProt P67578); test: Binding affinity to Staphylococcus aureus MetRS expressed in Escherichia coli BL21(DE3) cells assessed as dissociation constant in presence of 1 mM ATP by ITC analysis
Methionine--tRNA ligase [2] = target: T2, Methionine--tRNA ligase (Enterococcus faecalis, UniProt A0A3N3ZFK4); test: Binding affinity to Enterococcus faecalis type 1 MetRS expressed in Escherichia coli BL21(DE3) cells assessed as dissociation constant in presence of 1 mM ATP by ITC analysis
Methionine--tRNA ligase [3] = target: T2, Methionine--tRNA ligase; test: Binding affinity to Enterococcus faecalis type 1 MetRS expressed in Escherichia coli BL21(DE3) cells assessed as dissociation constant by ITC analysis
Methionine--tRNA ligase [4] = target: T1, Methionine--tRNA ligase; test: Inhibition of Staphylococcus aureus MetRS expressed in Escherichia coli BL21(DE3) cells measured after 2.5 hrs in presence of ATP by pre-transfer editing assay
Methionine--tRNA ligase [5] = target: T1, Methionine--tRNA ligase; test: Binding affinity to Staphylococcus aureus MetRS expressed in Escherichia coli BL21(DE3) cells assessed as dissociation constant in presence of 20 uM ATP by ITC analysis
Methionine--tRNA ligase [6] = target: T1, Methionine--tRNA ligase; test: Binding affinity to Staphylococcus aureus MetRS expressed in Escherichia coli BL21(DE3) cells assessed as dissociation constant by ITC analysis
Methionine--tRNA ligase [7] = target: T1, Methionine--tRNA ligase; test: Binding affinity to Staphylococcus aureus MetRS expressed in Escherichia coli BL21(DE3) cells assessed as dissociation constant in presence of 50 uM ATP by ITC analysis
Methionine--tRNA ligase [8] = target: T2, Methionine--tRNA ligase; test: Inhibition of Enterococcus faecalis type 1 MetRS expressed in Escherichia coli BL21(DE3) cells measured after 1.5 hrs in presence of ATP by pre-transfer editing assay
[9] = target: Methionine--tRNA ligase (Staphylococcus aureus (strain Mu50 / ATCC 700699)) (UniProt P67578); test: Binding affinity to Staphylococcus aureus MetRS expressed in Escherichia coli BL21(DE3) cells assessed as change in melting temperature at 100 uM incubated for 10 mins followed by heat treatment in presence of 2 mM ATP by SYPRO orange dye based TSA (reference value: 56.4 degreeC)
[10] = target: Methionine--tRNA ligase (Staphylococcus aureus (strain Mu50 / ATCC 700699)) (UniProt P67578); test: Inhibition of Staphylococcus aureus MetRS expressed in Escherichia coli BL21(DE3) cells at 100 uM measured after 2.5 hrs in presence of ATP by pre-transfer editing assay relative to control
[11] = target: Methionine--tRNA ligase (Staphylococcus aureus (strain Mu50 / ATCC 700699)) (UniProt P67578); test: Binding affinity to Staphylococcus aureus MetRS expressed in Escherichia coli BL21(DE3) cells assessed as change in melting temperature at 100 uM incubated for 10 mins followed by heat treatment by SYPRO orange dye based TSA (reference value: 53.7 degreeC)

T2 sequence (A0A3N3ZFK4 whole entry): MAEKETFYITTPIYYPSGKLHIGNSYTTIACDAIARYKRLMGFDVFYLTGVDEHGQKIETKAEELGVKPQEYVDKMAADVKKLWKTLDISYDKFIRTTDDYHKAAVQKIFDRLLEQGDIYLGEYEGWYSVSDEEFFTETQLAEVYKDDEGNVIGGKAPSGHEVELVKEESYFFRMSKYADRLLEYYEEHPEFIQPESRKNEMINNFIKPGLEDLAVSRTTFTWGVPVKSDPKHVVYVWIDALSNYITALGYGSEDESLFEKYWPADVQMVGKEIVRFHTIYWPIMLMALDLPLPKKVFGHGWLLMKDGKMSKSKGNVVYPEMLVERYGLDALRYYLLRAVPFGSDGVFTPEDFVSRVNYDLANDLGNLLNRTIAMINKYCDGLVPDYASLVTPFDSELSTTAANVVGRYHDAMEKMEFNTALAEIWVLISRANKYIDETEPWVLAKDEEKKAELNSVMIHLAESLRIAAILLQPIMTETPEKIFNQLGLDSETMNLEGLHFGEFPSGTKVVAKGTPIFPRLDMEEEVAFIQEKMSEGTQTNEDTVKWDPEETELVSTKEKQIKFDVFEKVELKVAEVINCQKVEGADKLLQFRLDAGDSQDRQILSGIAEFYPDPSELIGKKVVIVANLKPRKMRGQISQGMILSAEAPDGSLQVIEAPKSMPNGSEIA
T1 sequence (P67578 whole entry): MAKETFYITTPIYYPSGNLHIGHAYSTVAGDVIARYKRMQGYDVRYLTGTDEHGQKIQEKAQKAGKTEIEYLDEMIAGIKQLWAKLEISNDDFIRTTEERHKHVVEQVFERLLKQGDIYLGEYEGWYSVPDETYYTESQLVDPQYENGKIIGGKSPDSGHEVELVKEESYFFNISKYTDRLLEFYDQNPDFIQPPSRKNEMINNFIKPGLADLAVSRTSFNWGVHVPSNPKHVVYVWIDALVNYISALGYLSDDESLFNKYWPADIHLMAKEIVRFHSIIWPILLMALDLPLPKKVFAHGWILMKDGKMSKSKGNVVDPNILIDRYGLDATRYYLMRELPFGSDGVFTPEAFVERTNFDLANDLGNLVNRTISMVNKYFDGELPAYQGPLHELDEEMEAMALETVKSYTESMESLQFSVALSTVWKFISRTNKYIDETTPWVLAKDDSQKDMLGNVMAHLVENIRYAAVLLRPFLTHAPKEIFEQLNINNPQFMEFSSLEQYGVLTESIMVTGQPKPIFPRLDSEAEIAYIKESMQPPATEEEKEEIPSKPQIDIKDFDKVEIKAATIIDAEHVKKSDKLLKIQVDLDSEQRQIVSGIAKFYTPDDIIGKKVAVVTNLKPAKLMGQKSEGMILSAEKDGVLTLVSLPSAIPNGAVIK
Chain of Methionine--tRNA ligase (Staphylococcus aureus (strain Mu50 / ATCC 700699)) (P67578 whole entry): as above

With `[H]/N=C(/NCCCCN/C(=N/[H])N/C(=N/[H])Nc1ccc(Cl)cc1)N/C(=N/[H])Nc1ccc(Cl)cc1` the Kd (Methionine--tRNA ligase [1]) was 452 nM, the Kd (Methionine--tRNA ligase [2]) was 150 nM and the Kd (Methionine--tRNA ligase [3]) was 2700 nM. It also gave an IC50 (Methionine--tRNA ligase [4]) of 17300 nM, a Kd (Methionine--tRNA ligase [5]) of 1370 nM and a Kd (Methionine--tRNA ligase [6]) of 4920 nM. The Kd (Methionine--tRNA ligase [7]) was 493 nM and the IC50 (Methionine--tRNA ligase [8]) was 16100 nM.

Work on `C=C(F)c1sc(CNCCCNc2cc(=O)c3ccccc3[nH]2)c(C)c1Br` yielded a ΔTm [9] of 20.3 °C, an inhibition [10] of over 99% and a ΔTm [11] of 16.2 °C.

Compound `CCN(CC)CCCC(C)Nc1ccnc2cc(Cl)ccc12` (configuration not stated) has a ΔTm [9] of 1.1 °C, an inhibition [10] of under 20% and a ΔTm [11] of -0.1 °C.

`COc1cc(Nc2c(C#N)cnc3cc(OCCCN4CCN(C)CC4)c(OC)cc23)c(Cl)cc1Cl` gave a ΔTm [9] of 2.1 °C, an inhibition [10] of 32.7% and a ΔTm [11] of 0.5 °C.
